Assay results taken from ChEMBL document CHEMBL3885881, “DrugMatrix”.

Organism: Rattus norvegicus
Test: DrugMatrix - Regimen: Daily Repeat
Format: toxicity, organism-based, Sprague-Dawley
Set-up: regimen Daily Repeat, gender Male, age 6-8 weeks
Conditions: in vivo, po, route oral GAVAGE, vehicle .5 % CMC; for ABSOLUTE BASOPHIL / ABSOLUTE EOSINOPHIL / ABSOLUTE LYMPHOCYTE / ABSOLUTE MONOCYTE / ABSOLUTE SEGMENTED NEUTROPHIL / BASOPHIL / EOSINOPHIL / ERYTHROCYTE COUNT / HEMATOCRIT / HEMOGLOBIN / LEUKOCYTE COUNT / LYMPHOCYTE / MEAN CORPUSCULAR HEMOGLOBIN / MEAN CORPUSCULAR HEMOGLOBIN CONCENTRATION / MEAN CORPUSCULAR VOLUME / MONOCYTE / NEUTROPHIL / NUCLEATED RED BLOOD CELLS / PLATELET COUNT: tissue Blood; for ALANINE AMINOTRANSFERASE / ALBUMIN / ALKALINE PHOSPHATASE / ASPARTATE AMINOTRANSFERASE / BLOOD UREA NITROGEN / CARBON DIOXIDE / CHLORIDE / CHOLESTEROL / CREATINE PHOSPHOKINASE / CREATININE / GLUCOSE / LACTATE DEHYDROGENASE / LIPASE / PHOSPHORUS / POTASSIUM / SODIUM / TOTAL BILIRUBIN / TOTAL PROTEIN / URIC ACID: tissue Plasma
[1] = 10 mg/kg, 72 h, dose level Low, time 3 day
[2] = 10 mg/kg, 120 h, dose level Low, time 5 day
[3] = 1500 mg/kg, 72 h, dose level High, time 3 day
[4] = 1500 mg/kg, 120 h, dose level High, time 5 day

SMILES: CCOC(=O)[C@H](CCc1ccccc1)N[C@@H](C)C(=O)N1CCC[C@H]1C(=O)O
- ABSOLUTE BASOPHIL [1]: 0 CELLS/uL
- ABSOLUTE EOSINOPHIL [1]: 88 CELLS/uL
- ABSOLUTE LYMPHOCYTE [1]: 12760.67 CELLS/uL
- ABSOLUTE MONOCYTE [1]: 130 CELLS/uL
- ABSOLUTE SEGMENTED NEUTROPHIL [1]: 688 CELLS/uL
- BASOPHIL [1]: 0%
- EOSINOPHIL [1]: 0.67%
- ERYTHROCYTE COUNT [1]: 5.43 x10E6/uL
- HEMATOCRIT [1]: 32.83%
- HEMOGLOBIN [1]: 13.1 G/DL
- LEUKOCYTE COUNT [1]: 13.67 x10E3/uL
- LYMPHOCYTE [1]: 93.33%
- MEAN CORPUSCULAR HEMOGLOBIN [1]: 24.13 pg
- MEAN CORPUSCULAR HEMOGLOBIN CONCENTRATION [1]: 39.87 G/DL
- MEAN CORPUSCULAR VOLUME [1]: 60.53 fL
- MONOCYTE [1]: 1%
- NEUTROPHIL [1]: 5%
- NUCLEATED RED BLOOD CELLS [1]: 0.33 /100WBC
- PLATELET COUNT [1]: 1331.67 x10E3/uL
- ALANINE AMINOTRANSFERASE [1]: 46 u/L
- ALBUMIN [1]: 4.5 G/DL
- ALKALINE PHOSPHATASE [1]: 398 u/L
- ASPARTATE AMINOTRANSFERASE [1]: 79 u/L
- BLOOD UREA NITROGEN [1]: 17.67 mg/dL
- CARBON DIOXIDE [1]: 28.33 mmol/L
- CHLORIDE [1]: 98 MEQ/L
- CHOLESTEROL [1]: 60.33 mg/dL
- CREATINE PHOSPHOKINASE [1]: 181.67 u/L
- CREATININE [1]: 0.17 mg/dL
- GLUCOSE [1]: 149.33 mg/dL
- LACTATE DEHYDROGENASE [1]: 115.33 u/L
- LIPASE [1]: 9.67 u/L
- PHOSPHORUS [1]: 11.47 mg/dL
- POTASSIUM [1]: 6.99 MEQ/L
- SODIUM [1]: 142.87 MEQ/L
- TOTAL BILIRUBIN [1]: 0.23 mg/dL
- TOTAL PROTEIN [1]: 6.13 G/DL
- URIC ACID [1]: 1.37 mg/dL
- ABSOLUTE BASOPHIL [2]: 0 CELLS/uL
- ABSOLUTE EOSINOPHIL [2]: 28.33 CELLS/uL
- ABSOLUTE LYMPHOCYTE [2]: 10805 CELLS/uL
- ABSOLUTE MONOCYTE [2]: 28.33 CELLS/uL
- ABSOLUTE SEGMENTED NEUTROPHIL [2]: 738.33 CELLS/uL
- BASOPHIL [2]: 0%
- EOSINOPHIL [2]: 0.33%
- ERYTHROCYTE COUNT [2]: 5.56 x10E6/uL
- HEMATOCRIT [2]: 34.6%
- HEMOGLOBIN [2]: 13.37 G/DL
- LEUKOCYTE COUNT [2]: 11.6 x10E3/uL
- LYMPHOCYTE [2]: 93%
- MEAN CORPUSCULAR HEMOGLOBIN [2]: 24.03 pg
- MEAN CORPUSCULAR HEMOGLOBIN CONCENTRATION [2]: 38.63 G/DL
- MEAN CORPUSCULAR VOLUME [2]: 62.23 fL
- MONOCYTE [2]: 0.33%
- NEUTROPHIL [2]: 6.33%
- NUCLEATED RED BLOOD CELLS [2]: 0 /100WBC
- PLATELET COUNT [2]: 1173.33 x10E3/uL
- ALANINE AMINOTRANSFERASE [2]: 49.33 u/L
- ALBUMIN [2]: 4.27 G/DL
- ALKALINE PHOSPHATASE [2]: 405.67 u/L
- ASPARTATE AMINOTRANSFERASE [2]: 79.33 u/L
- BLOOD UREA NITROGEN [2]: 17.33 mg/dL
- CARBON DIOXIDE [2]: 26.33 mmol/L
- CHLORIDE [2]: 102.33 MEQ/L
- CHOLESTEROL [2]: 51.67 mg/dL
- CREATINE PHOSPHOKINASE [2]: 399 u/L
- CREATININE [2]: 0.17 mg/dL
- GLUCOSE [2]: 175 mg/dL
- LACTATE DEHYDROGENASE [2]: 121.67 u/L
- LIPASE [2]: 9 u/L
- PHOSPHORUS [2]: 11.1 mg/dL
- POTASSIUM [2]: 6.79 MEQ/L
- SODIUM [2]: 142.87 MEQ/L
- TOTAL BILIRUBIN [2]: 0.23 mg/dL
- TOTAL PROTEIN [2]: 6.07 G/DL
- URIC ACID [2]: 1.2 mg/dL
- ABSOLUTE BASOPHIL [3]: 0 CELLS/uL
- ABSOLUTE EOSINOPHIL [3]: 63.67 CELLS/uL
- ABSOLUTE LYMPHOCYTE [3]: 17047.67 CELLS/uL
- ABSOLUTE MONOCYTE [3]: 127.33 CELLS/uL
- ABSOLUTE SEGMENTED NEUTROPHIL [3]: 1494.67 CELLS/uL
- BASOPHIL [3]: 0%
- EOSINOPHIL [3]: 0.33%
- ERYTHROCYTE COUNT [3]: 5.46 x10E6/uL
- HEMATOCRIT [3]: 34.33%
- HEMOGLOBIN [3]: 13.63 G/DL
- LEUKOCYTE COUNT [3]: 18.73 x10E3/uL
- LYMPHOCYTE [3]: 91%
- MEAN CORPUSCULAR HEMOGLOBIN [3]: 24.93 pg
- MEAN CORPUSCULAR HEMOGLOBIN CONCENTRATION [3]: 39.7 G/DL
- MEAN CORPUSCULAR VOLUME [3]: 62.93 fL
- MONOCYTE [3]: 0.67%
- NEUTROPHIL [3]: 8%
- NUCLEATED RED BLOOD CELLS [3]: 1 /100WBC
- PLATELET COUNT [3]: 1237.33 x10E3/uL
- ALANINE AMINOTRANSFERASE [3]: 41.33 u/L
- ALBUMIN [3]: 4.27 G/DL
- ALKALINE PHOSPHATASE [3]: 390.33 u/L
- ASPARTATE AMINOTRANSFERASE [3]: 57.33 u/L
- BLOOD UREA NITROGEN [3]: 34.67 mg/dL
- CARBON DIOXIDE [3]: 32.33 mmol/L
- CHLORIDE [3]: 101.67 MEQ/L
- CHOLESTEROL [3]: 58.33 mg/dL
- CREATINE PHOSPHOKINASE [3]: 191.33 u/L
- CREATININE [3]: 0.28 mg/dL
- GLUCOSE [3]: 143 mg/dL
- LACTATE DEHYDROGENASE [3]: 90.33 u/L
- LIPASE [3]: 9 u/L
- PHOSPHORUS [3]: 12.8 mg/dL
- POTASSIUM [3]: 8.04 MEQ/L
- SODIUM [3]: 142.4 MEQ/L
- TOTAL BILIRUBIN [3]: 0.27 mg/dL
- TOTAL PROTEIN [3]: 6 G/DL
- URIC ACID [3]: 1.53 mg/dL
- ABSOLUTE BASOPHIL [4]: 0 CELLS/uL
- ABSOLUTE EOSINOPHIL [4]: 0 CELLS/uL
- ABSOLUTE LYMPHOCYTE [4]: 15341.33 CELLS/uL
- ABSOLUTE MONOCYTE [4]: 266 CELLS/uL
- ABSOLUTE SEGMENTED NEUTROPHIL [4]: 992.67 CELLS/uL
- BASOPHIL [4]: 0%
- EOSINOPHIL [4]: 0%
- ERYTHROCYTE COUNT [4]: 6.24 x10E6/uL
- HEMATOCRIT [4]: 36.97%
- HEMOGLOBIN [4]: 15.13 G/DL
- LEUKOCYTE COUNT [4]: 16.6 x10E3/uL
- LYMPHOCYTE [4]: 92.33%
- MEAN CORPUSCULAR HEMOGLOBIN [4]: 24.23 pg
- MEAN CORPUSCULAR HEMOGLOBIN CONCENTRATION [4]: 40.93 G/DL
- MEAN CORPUSCULAR VOLUME [4]: 59.27 fL
- MONOCYTE [4]: 1.67%
- NEUTROPHIL [4]: 6%
- NUCLEATED RED BLOOD CELLS [4]: 0.33 /100WBC
- PLATELET COUNT [4]: 1399.33 x10E3/uL
- ALANINE AMINOTRANSFERASE [4]: 39.33 u/L
- ALBUMIN [4]: 4.47 G/DL
- ALKALINE PHOSPHATASE [4]: 328.67 u/L
- ASPARTATE AMINOTRANSFERASE [4]: 73 u/L
- BLOOD UREA NITROGEN [4]: 41 mg/dL
- CARBON DIOXIDE [4]: 25.33 mmol/L
- CHLORIDE [4]: 101.67 MEQ/L
- CHOLESTEROL [4]: 48.67 mg/dL
- CREATINE PHOSPHOKINASE [4]: 295.67 u/L
- CREATININE [4]: 0.37 mg/dL
- GLUCOSE [4]: 149 mg/dL
- LACTATE DEHYDROGENASE [4]: 268.33 u/L
- LIPASE [4]: 9 u/L
- PHOSPHORUS [4]: 10.67 mg/dL
- POTASSIUM [4]: 9.54 MEQ/L
- SODIUM [4]: 140.13 MEQ/L
- TOTAL BILIRUBIN [4]: 0.13 mg/dL
- URIC ACID [4]: 1.4 mg/dL
